Assay results reported in patent US9579314B2 (priority 2015, dated 2017).

Columns and labels:
Human M3 receptor = Human M3 receptor (Homo sapiens, UniProt P20309); conditions: read-out: M3 binding affinity
Human β2 adrenoceptor = Human β2 adrenoceptor (Homo sapiens, UniProt P07550); conditions: read-out: B2 binding affinity
Human β2 adrenoceptor, sequence (P07550 whole entry): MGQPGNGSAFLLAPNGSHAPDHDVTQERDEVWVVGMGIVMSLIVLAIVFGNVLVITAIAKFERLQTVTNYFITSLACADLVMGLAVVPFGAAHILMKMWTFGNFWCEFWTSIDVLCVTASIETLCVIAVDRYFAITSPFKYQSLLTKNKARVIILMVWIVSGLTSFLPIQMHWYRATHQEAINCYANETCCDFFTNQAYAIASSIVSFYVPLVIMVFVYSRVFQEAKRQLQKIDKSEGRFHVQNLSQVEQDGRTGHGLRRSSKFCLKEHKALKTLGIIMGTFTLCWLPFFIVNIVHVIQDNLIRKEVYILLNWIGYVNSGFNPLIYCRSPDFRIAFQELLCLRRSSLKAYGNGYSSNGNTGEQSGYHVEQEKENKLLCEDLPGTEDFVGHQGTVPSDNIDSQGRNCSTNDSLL

Human M3 receptor, sequence (P20309 whole entry): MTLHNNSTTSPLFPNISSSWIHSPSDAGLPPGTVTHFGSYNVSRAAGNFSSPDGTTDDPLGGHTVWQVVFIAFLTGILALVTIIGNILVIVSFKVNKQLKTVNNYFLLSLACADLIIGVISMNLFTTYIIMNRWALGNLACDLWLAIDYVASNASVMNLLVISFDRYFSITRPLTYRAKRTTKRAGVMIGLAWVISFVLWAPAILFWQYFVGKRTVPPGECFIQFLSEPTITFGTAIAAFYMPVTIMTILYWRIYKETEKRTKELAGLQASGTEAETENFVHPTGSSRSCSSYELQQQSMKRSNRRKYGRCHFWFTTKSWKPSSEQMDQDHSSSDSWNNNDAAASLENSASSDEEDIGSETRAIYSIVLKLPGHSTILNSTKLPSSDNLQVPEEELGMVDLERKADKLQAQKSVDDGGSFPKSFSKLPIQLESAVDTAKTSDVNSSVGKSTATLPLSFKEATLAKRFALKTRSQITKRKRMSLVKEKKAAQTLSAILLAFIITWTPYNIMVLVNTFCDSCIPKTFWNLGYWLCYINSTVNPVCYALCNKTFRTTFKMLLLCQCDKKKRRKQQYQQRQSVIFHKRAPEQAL

SMILES | IC50 (Human M3 receptor) [nM] | IC50 (Human β2 adrenoceptor) [nM]
O=C(OCC1CCN(Cc2ccccc2)CC1)[C@](O)(c1ccccc1)c1cccc(OCCCCCCCCNCC(O)c2ccc(O)c3[nH]c(=O)ccc23)c1 (stereo in doubt) [Compound 30, (S)-(1-benzylpiperidin-4-yl)methyl 2-hydroxy-2-(3-((8-(((R)-2-hydroxy-2-(8-hydroxy-2-oxo-1,2-dihydroquinolin-5-yl)ethyl)amino)octyl)oxy)phenyl)-2-phenylacetate] | 0.3 to 3 | 0.3 to 3
O=C(NCC1CCN(C(=O)COc2cccc([C@](O)(C(=O)OCC3CCN(Cc4ccccc4)CC3)c3ccccc3)c2)CC1)c1ccc(CNC[C@H](O)c2ccc(O)c3[nH]c(=O)ccc23)cc1 [Compound 61, (1-benzylpiperidin-4-yl)methyl (S)-2-hydroxy-2-(3-(2-(4-((4-((((R)-2-hydroxy-2-(8-hydroxy-2-oxo-1,2-dihydroquinolin-5-yl)ethyl)amino)methyl)benzamido)methyl)piperidin-1-yl)-2-oxoethoxy)phenyl)-2-phenylacetate] | 0.3 to 3 | < 0.3
O=C(c1ccc(CCNC[C@H](O)c2ccc(O)c3[nH]c(=O)ccc23)cc1)N1CCC2(CCCN(C(=O)c3ccc(COc4cccc([C@](O)(C(=O)OCC5CCN(Cc6ccccc6)CC5)c5ccccc5)c4)cc3)C2)CC1 [Compound 122, (1-benzylpiperidin-4-yl)methyl (S)-2-hydroxy-2-(3-((4-(9-(4-(2-(((R)-2-hydroxy-2-(8-hydroxy-2-oxo-1,2-dihydroquinolin-5-yl)ethyl)amino)ethyl)benzoyl)-2,9-diazaspiro[5.5]undecane-2-carbonyl)benzyl)oxy)phenyl)-2-phenylacetate] | 0.3 to 3 | > 3
O=C(c1ccc(COc2cccc([C@](O)(C(=O)OCC3CCN(Cc4ccccc4)CC3)c3ccccc3)c2)cc1)N1CCC(CNC[C@H](O)c2ccc(O)c3[nH]c(=O)ccc23)CC1 [Compound 33, (S)-(1-benzylpiperidin-4-yl)methyl 2-hydroxy-2-(3-((4-(4-((((R)-2-hydroxy-2-(8-hydroxy-2-oxo-1,2-dihydroquinolin-5-yl)ethyl)amino)methyl)-piperidine-1-carbonyl)benzyl)oxy)phenyl)-2-phenylacetate] | < 0.3 | < 0.3
O=C(N[C@H]1CCN(C(=O)COc2cccc([C@](O)(C(=O)OCC3CCN(Cc4ccccc4)CC3)c3ccccc3)c2)C1)c1ccc(CNC[C@H](O)c2ccc(O)c3[nH]c(=O)ccc23)cc1 [Compound 73, (1-benzylpiperidin-4-yl)methyl (S)-2-hydroxy-2-(3-(2-((S)-3-(4-((((R)-2-hydroxy-2-(8-hydroxy-2-oxo-1,2-dihydroquinolin-5-yl)ethyl)amino)methyl)benzamido)pyrrolidin-1-yl)-2-oxoethoxy)phenyl)-2-phenylacetate] | 0.3 to 3 | < 0.3
O=C(N[C@H]1C[C@H](NC(=O)c2ccc(COc3cccc([C@](O)(C(=O)OCC4CCN(Cc5ccccc5)CC4)c4ccccc4)c3)cc2)C1)c1ccc(CNC[C@H](O)c2ccc(O)c3[nH]c(=O)ccc23)cc1 [Compound 123, (1-benzylpiperidin-4-yl)methyl (S)-2-hydroxy-2-(3-((4-(((1R,3S)-3-(4-((((R)-2-hydroxy-2-(8-hydroxy-2-oxo-1,2-dihydroquinolin-5-yl)ethyl)amino)methyl)benzamido)cyclobutyl)carbamoyl)benzyl)oxy)phenyl)-2-phenylacetate] | 0.3 to 3 | 0.3 to 3
O=C(N[C@H]1CCCN(C(=O)COc2cccc([C@](O)(C(=O)OCC3CCN(Cc4ccccc4)CC3)c3ccccc3)c2)C1)c1ccc(CNC[C@H](O)c2ccc(O)c3[nH]c(=O)ccc23)cc1 [Compound 72, (1-benzylpiperidin-4-yl)methyl (S)-2-hydroxy-2-(3-(2-((S)-3-(4-((((R)-2-hydroxy-2-(8-hydroxy-2-oxo-1,2-dihydroquinolin-5-yl)ethyl)amino)methyl)benzamido)piperidin-1-yl)-2-oxoethoxy)phenyl)-2-phenylacetate] | 0.3 to 3 | > 3
COc1cc(C(=O)NCC2CCN(C(=O)COc3cccc([C@](O)(C(=O)OCC4CCN(Cc5ccccc5)CC4)c4ccccc4)c3)CC2)ccc1CNC[C@H](O)c1ccc(O)c2[nH]c(=O)ccc12 [Compound 80, (1-benzylpiperidin-4-yl)methyl (S)-2-hydroxy-2-(3-(2-(4-((4-((((R)-2-hydroxy-2-(8-hydroxy-2-oxo-1,2-dihydroquinolin-5-yl)ethyl)amino)methyl)-3-methoxybenzamido)methyl)piperidin-1-yl)-2-oxoethoxy)phenyl)-2-phenylacetate] | 0.3 to 3 | < 0.3
O=C(COc1cccc([C@](O)(C(=O)OCC2CCN(Cc3ccccc3)CC2)c2ccccc2)c1)NCCNC(=O)c1ccc(CCNC[C@H](O)c2ccc(O)c3[nH]c(=O)ccc23)cc1 [Compound 103, (1-benzylpiperidin-4-yl)methyl (S)-2-hydroxy-2-(3-(2-((2-(4-(2-(((R)-2-hydroxy-2-(8-hydroxy-2-oxo-1,2-dihydroquinolin-5-yl)ethyl)amino)ethyl)benzamido)ethyl)amino)-2-oxoethoxy)phenyl)-2-phenylacetate] | < 0.3 | 0.3 to 3
O=C1C=Cc2c([C@@H](O)CNCCC3CCN(C(=O)c4ccc(COc5cccc([C@](O)(C(=O)OCC6CCN(Cc7ccccc7)CC6)c6ccccc6)c5)cc4)CC3)ccc(O)c2C1 [Compound 33A, (1-benzylpiperidin-4-yl)methyl (S)-2-hydroxy-2-(3-((4-(4-(2-(((R)-2-hydroxy-2-(4-hydroxy-6-oxo-5,6-dihydronaphthalen-1-yl)ethyl)amino)ethyl)piperidine-1-carbonyl)benzyl)oxy)phenyl)-2-phenylacetate] | 0.3 to 3 | < 0.3
COc1cc(C(=O)N[C@H]2C[C@H](NC(=O)COc3cccc([C@](O)(C(=O)OCC4CCN(Cc5ccccc5)CC4)c4ccccc4)c3)C2)c(F)cc1CNC[C@H](O)c1ccc(O)c2[nH]c(=O)ccc12 [Compound 142, (1-benzylpiperidin-4-yl)methyl (S)-2-(3-(2-(((1R,3S)-3-(2-fluoro-4-((((R)-2-hydroxy-2-(8-hydroxy-2-oxo-1,2-dihydroquinolin-5-yl)ethyl)amino)methyl)-5-methoxybenzamido)cyclobutyl)amino)-2-oxoethoxy)phenyl)-2-hydroxy-2-phenylacetate] | 0.3 to 3 | < 0.3
CCOc1cc(C(=O)N[C@H]2C[C@H](NC(=O)COc3cccc([C@](O)(C(=O)OCC4CCN(Cc5ccccc5)CC4)c4ccccc4)c3)C2)ccc1CNC[C@H](O)c1ccc(O)c2[nH]c(=O)ccc12 [Compound 140, (1-benzylpiperidin-4-yl)methyl (S)-2-(3-(2-(((1R,3S)-3-(3-ethoxy-4-((((R)-2-hydroxy-2-(8-hydroxy-2-oxo-1,2-dihydroquinolin-5-yl)ethyl)amino)methyl)benzamido)cyclobutyl)amino)-2-oxoethoxy)phenyl)-2-hydroxy-2-phenylacetate] | 0.3 to 3 | 0.3 to 3
O=C(N[C@@H]1CCN(C(=O)COc2cccc([C@](O)(C(=O)OCC3CCN(Cc4ccccc4)CC3)c3ccccc3)c2)C1)c1ccc(CNC[C@H](O)c2ccc(O)c3[nH]c(=O)ccc23)cc1 [Compound 76, (1-benzylpiperidin-4-yl)methyl (S)-2-hydroxy-2-(3-(2-((R)-3-(4-((((R)-2-hydroxy-2-(8-hydroxy-2-oxo-1,2-dihydroquinolin-5-yl)ethyl)amino)methyl)benzamido)pyrrolidin-1-yl)-2-oxoethoxy)phenyl)-2-phenylacetate] | 0.3 to 3 | 0.3 to 3
